Experiments:
[1] = tested on: human stromal cells; experiment: PDGF-stimulated proliferation of human stromal cells; format: cell-based; settings: Homo sapiens, 1 h; 50 ng/ml PDGF-BB; drug one hour prior; FIGS. 15 and 16; read-out: IC50, stromal cell proliferation
Experimental: (§1) This assay is an in vitro model for restenosis and treatment of atherosclerosis and coronary artery disease. Stromal cells were starved in serum-free media for one day and then stimulated with 50 ng/ml PDGF-BB. The drugs were added at the indicated concentrations one hour prior to PDGF stimulation. Tritiated thymidine was added for one day at the time of PDGF stimulation and the cells were harvested and counted by liquid scintillation counting 24 hrs later.
Another assay for measuring activity of the inventive compounds involves determining PDGF (platelet derived growth factor) proliferative response using human-derived stromal cells. […] Two to three days later, the stromal cells are starved in serum-free media. Twenty four hours later, the cells are treated with a stimulating agent, such as PDGF-AA, PDGF-BB or basic FGF (fibroblast growth factor) with or without IL-1α or TNF, and tritiated thymidine. Cell proliferation is determined by liquid scintillation counting.
as §1

[2] = tested on: CMV promoter activity in transformed (adenovirus) cells; experiment: CMV promoter assay (gene transcription and translation; cytotoxicity in transformed cells); format: cell-based
Procedure, shortened: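 Reporter assay in adenovirus-transformed cells, reading CMV promoter-driven gene transcription and translation; activity reflects cytotoxic inhibition of cellular protein synthesis machinery.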

[3] = tested on: LPS-mediated release of TNF from monocytes in whole blood; experiment: Ex vivo human TNF model (LPS-stimulated whole blood); format: cell-based; settings: lower doses, FIG. 19
Source text: (§2) FIG. 19 illustrates a comparative experiment comparing CT1508, CT1524, CT1534 and CT2501 in an ex vivo human TNF model described herein. This assay is a predictive model for treatment and prevention of septic shock and sepsis syndrome. This model adds LPS to whole blood (normal human volunteers) to trigger a dose-dependent synthesis and extracellular release of TNF according to Desch et al. (Lymphokine Res. 8:141, 1989). The ex vivo model examines whether LPS-mediated release of TNF from monocytes in whole blood can be blocked by an inventive compound.
as §2, with “This example” for “FIG. 19”

[4] = tested on: mast cell degranulation; experiment: Serotonin release assay (inhibition of mast cell degranulation); format: cell-based; settings: 50 μM; for RELEASE-SPONT / AVERAGE % RELEASE / inhibition at 50 µM: Table 4; for RELEASE-SPONT: average corrected for spontaneous release; for AVERAGE % RELEASE: average of duplicates; for inhibition at 50 µM: Mast cell
Procedure, shortened: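 Cultured mast cells loaded with 3H-serotonin and sensitized with anti-DNP IgE for 18 h at 37 °C, then triggered with 40 ng/ml DNP-BSA for 45 min with compound in PIPES isotonic buffer pH 7.1.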

[5] = tested on: second messenger pathway enzymes in P388 cells (murine monocyte/macrophage line); experiment: Changes in lipid mass (DAG, PA) in P388 cells after signal stimulation; format: cell-based; settings: 30 second time point, FIGS. 20-22
Experimental: (§3) FIGS. 20-22 illustrate the effect of one inventive compound (CT1534) on the substates and products of the present second messenger pathway. Various concentrations of CT1534 were incubated with P388 cells (a murine monocyte/macrophage line) and changes in lipid mass determined at 0 time, 30 seconds and 60 seconds after signal stimulation. FIGS. 20-22 show the 30 second time point for two DAG peaks and a PA peak.
as §3, with “This example illustrates” for “FIGS. 20-22 illustrate”

[6] = tested on: transformed cells (Ras 3T3) and normal 3T3 cells; experiment: Cytotoxicity in transformed cells (Ras 3T3) versus normal 3T3 cells; format: cell-based; settings: LD50 comparison; FIG. 17
Experimental: Each inventive compound is investigated for cytotoxicity to determine appropriate doses for biological activity assays and to prevent cytotoxic reactions in in vitro assays when characterizing activity. Cells (e.g., NIH-3T3, Ras transformed 3T3 cells, malignant melanoma LD2 cells, etc.) are added to microtiter plates and drug is added about two days after plating. Cell viability is determined using a fluorescent viability stain (e.g., 2',7'-bis-(2-carboroxyethyl)-5-(and -6)-carboxyfluorescein acetoxymethyl ester, BCECF excitation 488 nm and emission 525 nm) 24, 48 or 72 hours after addition of the drug.
This example illustrates a comparison of cytotoxicity determinations for CT1534 and CT1539 in transformed cells (Ras 3T3) and in normal 3T3 cells to determine the in vitro LD50 value in both cell types and to look for differential cytotoxicity effects between the cell types.

[7] = tested on: PBMC (peripheral blood mononuclear cells); experiment: Two-way mixed lymphocyte reaction (MLR), proliferation of PBMC to allogeneic stimulation; format: cell-based, human; settings: FIGS. 1 and 2
Source text: Various in vitro assays can be used to measure effects of the inventive compounds to module immune activity and have antitumor activity using a variety of cellular types. For example, a mixed lymphocyte reaction (MLR) provides a valuable screening tool to determine biological activity of each inventive compound. In the MLR, PBMCs (peripheral blood mononuclear cells) are obtained by drawing whole blood from healthy volunteers in a heparinized container and diluted with an equal volume of hanks balanced salt solution (HBSS). This mixture is layered on a […] density gradient, such as a Ficoll-Hypaque® gradient (specific gravity 1.08), and centrifuged at 1000×g for 25 minutes at room temperature or cooler. PBMC are obtained from a band at a plasma-Ficoll interface, separated and washed at least twice in a saline solution, such as HBSS. Contaminating red cells are lysed, such as by ACK lysis for 10 min at 37° C., and the PBMCs are washed twice in HBSS. The pellet of purified PBMCs is resuspended in complete medium, such as RPMI 1640 plus 20% human inactivated serum. Proliferative response of PBMC to allogeneic stimulation is determined in a two-way MLR performed in a 96-well microliter plate. Briefly, approximately 10^5 test purified PBMC cells in […] complete medium are co-cultured with approximately 10^5 autologous (control culture) or allogeneic (stimulated culture) PBMC cells, wherein the allogeneic cells are from HLA disparate individuals. Varying doses of compounds (drug) are added at the time of addition of cells to the microtiter plate. The cultures are incubated for 6 days at 37° C. in a 5% CO2 atmosphere. At the conclusion of the incubation tritiated thymidine is added (for example, […] of 40 to 60 Ci/mmole) and proliferation determined by liquid scintillation counting.
This example illustrates a mixed lymphocyte reaction assay of inventive compounds by showing the IC50 value of each compound in this assay and a dose response of several compounds to illustrate an IC50 determination.

[8] = tested on: murine thymocyte; experiment: Murine thymocyte stimulated by ConA and IL-2 (T cell immune suppression); format: cell-based; settings: FIGS. 8 and 9
Experimental: A thymocyte costimulator assay is conducted to evaluate the inventive compounds to inhibit activation and proliferation of thymocytes caused by stimulation with Con A and interleukin-1 (IL-1), or […]. Thymuses are obtained from mice (e.g., female Balb/C mice) and the thymuses are removed and dissociated into culture media (e.g., RPMI 1640 without serum supplementation). The dissociated thymus tissue and cell suspension is transferred to centrifuge tubes and allowed to settle, washed with HBSS and resuspended in serum-supplemented culture media (e.g., RPMI 1640 with 10% fetal calf serum). Any contaminating red cells are lysed, and viable cells are resuspended and counted. Thymocytes are plated (e.g., 96-well plates at a density of 2×10^5 cells/well) and a stimulating agent, such as Con A, IL-1 (e.g., IL-1α) or IL-2 is added to the well. The cells are incubated for 4 days at 37° C. On the fourth day, the cells are pulsed with tritiated thymidine and cell proliferation determined. Inventive compounds are added at the time of stimulating agent addition.
A third assay measures an ability of an inventive compound to inhibit IL-2-induced proliferation of murine thymocytes. Thymus glands are obtained from 4-6 week old mice and plated as a single cell suspension into flat bottomed wells in RPMI 1640 medium supplemented with 10% fetal calf serum. The inventive compounds are added to appropriate wells and the cells are incubated for 1-2 hrs. Concanavilin A (ConA, 0.25 mg/ml) and […] (20 ng/ml) are added and the plates are incubated for 4 days. Cell proliferation is determined as above.
FIG. 8 compares T cell immune suppression data of thirteen inventive compounds by comparing their IC50 values in a murine thymocyte stimulated by ConA and IL-2 in vitro model.

[9] = tested on: PBMC in mixed lymphocyte assay culture; experiment: Percent viable cells in mixed lymphocyte assay culture after six days; format: cell-based, human
[10] = tested on: murine lymph node cell (T cell) proliferation; experiment: Murine lymph node cell proliferation stimulated by antigen; format: cell-based; settings: Mus musculus, 2 h, drug two hours prior, FIG. 11
Source text: A second immune suppression assay measures a T cell component to the immune reaction. Lymph nodes contain a mixture of cells including T cells, B cells and macrophages. Although the proliferating cells in this assay are T cells, the response is also dependent upon an antigen presenting cell such as a macrophage as well as an elaboration of various immunoregulatory cytokines. Murine T cells will proliferate in vitro in response to a soluble o protein antigen if they are first primed with the antigen in vivo. In vivo priming involves emulsifying the antigen (chicken ovalbumin or OVA) in complete Freunds adjuvant and injecting […] of OVA into both hind footpads of adult Balb/c mice. Fourteen days later the draining lymph nodes (popliteal) are removed and a single cell suspension is prepared in RPMI 1640 supplemented with 10% fetal calf serum. The lymph node cells (200,000) are plated into flat-bottom wells and OVA ([…]) and/or drug is added to appropriate wells and incubated for 5 days. Proliferation is determined and IC50's calculated as above.
This example illustrates the effects of four inventive compounds on inhibition of murine lymph node cell proliferation stimulated by antigen. This assays uses murine T cells that proliferate in vitro in response to a soluble protein antigen that is first used to prime the T cells in vivo. […]

SMILES | IC50 [1] | IC50 [2] | inhibition of LPS-mediated TNF release [3] | activity in serotonin release assay [4] | RELEASE-SPONT [4] | AVERAGE % RELEASE [4] | inhibition at 50 µM [4] | plateau concentration for inhibition of second messenger signaling ([5]; DAG and PA peaks) | inhibition of second messenger signaling enzymes [5] | differential cytotoxicity, transformed vs normal cells [6] | mixed lymphocyte reaction activity [7] | T cell immune suppressing activity [8] | cytotoxicity in mixed lymphocyte assay culture ([9]; 100 μM, six days of culture) | therapeutic window ([9]; cytotoxicity at 100 μM vs MLR IC50) | IC50 [10]
CC/C=C\CCCCCn1c(=O)c2c(ncn2C)n(C)c1=O [CT1508, 1-(6-cis-nonenyl)-3,7-dimethylxanthine] | < 2 µM | 75 µM | the most effective agent | increases the activity | 3.38% | 19.94% | 57.9% | – | – | – | – | – | – | – | –
C=CCCCCCn1c(=O)c2c(ncn2C)n(C)c1=O [CT1534, 1-(6-heptenyl)-3,7-dimethylxanthine] | – | > 500 µM | – | – | 5.47% | 22.02% | 31.9% | around 10 μM | inhibits the enzymes involved in second messenger signaling to an inflammatory stimulus in a dose-response fashion | much more cytotoxic for the transformed cell than the normal cell | – | – | – | – | –
C=CCCCCCCCCn1c(=O)c2c(ncn2C)n(C)c1=O [CT1563, 1-(9-Decenyl)-3,7-dimethylxanthine] | – | 50 µM | – | – | 7.43% | 23.98% | 7.39% | – | – | – | showed activity within dose ranges achievable in vivo | potent immune suppressing activity | the most cytotoxic at 100 μM | significant therapeutic window | ~15 µM
